From patent US12582657B2, “Combination therapy including a KRAS G12C inhibitor and one or more additional pharmaceutically active agents for the treatment of cancers” (Amgen Inc., priority 2018, dated 2026)

How the values were obtained:
KRAS^C118A = biological target: T1, KRAS^C118A (Homo sapiens, UniProt P01116, C118A); test: SOS1-catalyzed coupled nucleotide exchange assay (Alpha); assay type: biochemical; conditions: wildtype at position 12
T1 construct: His-tagged human KRAS^C118A (1-169); made in house; host or cells: Escherichia coli (KRAS, c-RAF); Trichoplusia ni (SOS1)
Method: (§1) A cysteine-light mutant construct was used for co-crystallization studies based on the work of Ostrem et al^15.
(§2) The inhibition of the SOS1-catalyzed nucleotide exchange activity of KRAS^G12C/C118A or KRAS^C118A was measured using Alpha (Amplified Luminescent Proximity Homogeneous Assay) technology. […] For all subsequent steps, DTT was added to the reaction buffer at a final concentration of 1 mM. […] Finally, c-RAF RBD (50 nM final), Alpha glutathione donor beads (PerkinElmer; 20 μg/mL final), and AlphaLISA® nickel chelate acceptor beads (PerkinElmer; 20 μg/mL final), all diluted in DTT-reaction buffer, were added. The reaction mixture was incubated at RT for 5 min, and then the plates were read on an EnVision® Multilabel Reader using the AlphaScreen protocol. […] Signal intensity corresponded with the association of c-RAF RBD with GTP-bound KRAS^G12C/C118A or KRAS^C118A and was normalized to DMSO control.

KRAS^G12C/C118A = biological target: T2, KRAS^G12C/C118A (Homo sapiens, UniProt P01116, C118A/G12C); test: as above; assay type: biochemical
T2 construct: Recombinant His-tagged human KRAS^G12C/C118A (1-169); made in house; host or cells: Escherichia coli (KRAS, c-RAF); Trichoplusia ni (SOS1)
Method: as §1, §2

[1] = system: immune cells in CT-26 KRAS p.G12C tumors; test: Tumor immunophenotyping by flow cytometry; assay type: in vivo, mouse; conditions: after 4 days of treatment
[2] = system: ERK1/2 phosphorylation in CT-26 KRAS p.G12C tumors; test: Tumor pharmacodynamic assay (p-ERK, MSD immunoassay); conditions: MEKi 10 mg/kg single oral dose; 2 hours
MIA PaCa-2 (pancreas) = test: In vitro two-way combination matrix, growth inhibition, Loewe synergy score; assay type: cell-based, human
KRAS^G12C = KRAS^G12C (Homo sapiens, UniProt P01116, G12C); test: Cellular kinetics from time- and concentration-dependence of p-ERK inhibition; assay type: cell-based; conditions: NCI-H358 cells
Method: To provide an alternative estimate of the rate of GTP-hydrolysis by KRAS^G12C, a SHP2 inhibitor was employed to eliminate all upstream signaling to KRAS.
To determine the kinetic values of covalent inhibitor-KRAS^G12C adduct formation in cells, basal ERK1/2 phosphorylation levels were measured following treatment with various inhibitor concentrations at various incubation times exactly as described above, and % activity values were used for the kinetic calculations.

NCI-H358 tumors = test: Tumor xenograft efficacy study, single agent and combinations; assay type: in vivo, mouse; conditions: AMG 510 10 or 30 mg/kg QD oral; carboplatin 50 or 100 mg/kg IP 1x/week

T2 sequence (P01116 1-169 isoform P01116-2 G12C/C118A): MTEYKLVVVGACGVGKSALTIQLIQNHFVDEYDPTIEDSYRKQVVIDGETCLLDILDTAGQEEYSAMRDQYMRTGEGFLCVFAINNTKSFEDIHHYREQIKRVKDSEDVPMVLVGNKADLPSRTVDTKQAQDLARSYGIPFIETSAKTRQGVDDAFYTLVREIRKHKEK
KRAS^G12C, sequence (P01116 1-188 isoform P01116-2 G12C): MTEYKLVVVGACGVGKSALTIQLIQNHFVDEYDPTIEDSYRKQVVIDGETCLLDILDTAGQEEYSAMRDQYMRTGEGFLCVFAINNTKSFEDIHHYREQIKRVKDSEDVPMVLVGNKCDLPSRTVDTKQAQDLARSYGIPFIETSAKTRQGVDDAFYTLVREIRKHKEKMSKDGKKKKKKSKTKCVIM
T1 sequence (P01116 1-169 isoform P01116-2 C118A): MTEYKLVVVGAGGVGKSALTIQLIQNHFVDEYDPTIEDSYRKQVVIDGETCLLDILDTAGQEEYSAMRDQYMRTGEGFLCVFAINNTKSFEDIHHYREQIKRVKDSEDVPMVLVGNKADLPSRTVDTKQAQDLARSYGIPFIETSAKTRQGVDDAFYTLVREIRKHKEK

Q: How did the “inhibition of KRAS^C118A nucleotide exchange” value (KRAS^C118A) turn out when `CCC(=O)N1CCN(c2nc(=O)n(-c3c(C)ccnc3C(C)C)c3nc(-c4c(O)cccc4F)c(F)cc23)[C@@H](C)C1` (atropisomer, axis not shown; (M)) [non-reactive analog of AMG 510, (M)-6-Fluoro-7-(2-fluoro-6-hydroxyphenyl)-1-(4-methyl-2-(2-propanyl)-3-pyridinyl)-4-((2S)-2-methyl-4-propanoyl-1-piperazinyl)pyrido[2,3-d]pyrimidin-2(1H)-one] was run?
A: minimal activity

Q: And the “inhibition of KRAS^G12C/C118A nucleotide exchange” value (KRAS^G12C/C118A)?
A: minimal activity

Q: What does the source list for `O=C(NOC[C@H](O)CO)c1ccc(F)c(F)c1Nc1ccc(I)cc1F` [MEKi, N-(((2R)-2,3-dihydroxypropyl)oxy)-3,4-difluoro-2-((2-fluoro-4-iodophenyl)amino)benzamide]?
A: PD-1 expression on CD8+ T cells [1]: moderately increased; T cell infiltration of tumors [1]: did not affect numbers of infiltrating CD8+ T cells; infiltration of macrophages and dendritic cells [1]: not observed; MAPK signaling in tumors [2]: blocked MAPK signaling downstream of RAS

Q: For `Cc1nc(N2CCC3(CC2)CO[C@@H](C)[C@H]3N)c(CO)nc1-c1cccc(Cl)c1Cl` [RMC-4550], which “single agent activity” value (MIA PaCa-2 (pancreas)) is on record?
A: lack of single agent activity

Q: And the “cellular GTP hydrolysis rate from p-ERK inhibition by SHP2 inhibitor” value (KRAS^G12C)?
A: 0.00094 s⁻¹

Q: With `N.N.O=C([O-])C1(C(=O)[O-])CCC1.[Pt+2]` [carboplatin] as the molecule, how does the “tumor growth, carboplatin combination study” value (NCI-H358 tumors) read?
A: significant tumor growth inhibition

Q: Which “single agent activity” value (MIA PaCa-2 (pancreas)) does the source give for `C#Cc1cccc(Nc2ncnc3cc(OCCOC)c(OCCOC)cc23)c1` [erlotinib] here?
A: lack of erlotinib activity
